Measurements taken from ChEMBL document CHEMBL3877316, “Synthesis of pharmacologically important naphthoquinones and anticancer activity of 2-benzyllawsone through DNA topoisomerase-II inhibition” (Bioorg Med Chem, 2017).
Activity calls are given as the source filed them. No cut-off for these calls is given here.

Legend:
[1] = system: Mus musculus; test: Acute toxicity in Swiss albino mouse assessed as serum WBC level at 5 mg/kg, po qd administered as single dose for 7 days (reference value: 8.64 +/- 0.42 10^3/mm3); assay type: organism-based; conditions: in vivo, 168 h
[2] = system: Mus musculus; test: Acute toxicity in Swiss albino mouse assessed as serum triglycerides level at 1000 mg/kg, po qd administered as single dose for 7 days (reference value: 107.9 +/- 10.7 mg/dl); assay type: organism-based; conditions: in vivo, 168 h
[3] = system: Mus musculus; test: Acute toxicity in Swiss albino mouse assessed as serum triglycerides level at 50 mg/kg, po qd administered as single dose for 7 days (reference value: 107.9 +/- 10.7 mg/dl); assay type: organism-based; conditions: in vivo, 168 h
[4] = system: Mus musculus; test: Acute toxicity in Swiss albino mouse assessed as effect on basophil count up to 1000 mg/kg, po qd administered as single dose for 7 days; assay type: organism-based; conditions: in vivo, 168 h
[5] = Cell cycle arrest in human FADU cells assessed as accumulation at S phase at 2.5 to 10 uM by propidium iodide staining based flow cytometry; assay type: functional
[6] = system: FaDu; test: Induction of apoptosis in human FADU cells at 10 uM by propidium iodide staining based flow cytometry; assay type: functional, cell-based
[7] = system: Mus musculus; test: Acute toxicity in Swiss albino mouse assessed as serum SGPT level at 50 mg/kg, po qd administered as single dose for 7 days (reference value: 23.06 +/- 1.92 U/L); assay type: organism-based; conditions: in vivo, 168 h
[8] = system: Mus musculus; test: Acute toxicity in Swiss albino mouse assessed as changes in absolute weight of liver up to 1000 mg/kg, po qd administered as single dose for 7 days; assay type: organism-based; conditions: in vivo, 168 h
[9] = system: Mus musculus; test: Acute toxicity in Swiss albino mouse assessed as serum protein level at 50 mg/kg, po qd administered as single dose for 7 days (reference value: 2.91 +/- 0.31 mg/ml); assay type: organism-based; conditions: in vivo, 168 h
[10] = system: Mus musculus; test: Acute toxicity in Swiss albino mouse assessed as body weight at 1000 mg/kg, po qd administered as single dose for 7 days (reference value: 27.73 +/- 0.94 g); assay type: organism-based; conditions: in vivo, 168 h
[11] = Antiproliferative activity against human A549 cells after 48 hrs by SRB assay; assay type: functional, cell-based; conditions: A549, 48 h
[12] = system: Mus musculus; test: Acute toxicity in Swiss albino mouse assessed as serum haemoglobin level at 5 mg/kg, po qd administered as single dose for 7 days (reference value: 13.29 +/- 0.46 g/dl); assay type: organism-based; conditions: in vivo, 168 h
[13] = system: Mus musculus; test: Acute toxicity in Swiss albino mouse assessed as changes in relative weight of lungs up to 1000 mg/kg, po qd administered as single dose for 7 days; assay type: organism-based; conditions: in vivo, 168 h
[14] = system: Mus musculus; test: Acute toxicity in Swiss albino mouse assessed as changes in relative weight of heart up to 1000 mg/kg, po qd administered as single dose for 7 days; assay type: organism-based; conditions: in vivo, 168 h
[15] = system: Mus musculus; test: Acute toxicity in Swiss albino mouse assessed as serum protein level at 1000 mg/kg, po qd administered as single dose for 7 days (reference value: 2.91 +/- 0.31 mg/ml); assay type: organism-based; conditions: in vivo, 168 h
[16] = system: Mus musculus; test: Acute toxicity in Swiss albino mouse assessed as changes in absolute weight of lungs up to 1000 mg/kg, po qd administered as single dose for 7 days; assay type: organism-based; conditions: in vivo, 168 h
[17] = system: Mus musculus; test: Acute toxicity in Swiss albino mouse assessed as body weight at 300 mg/kg, po qd administered as single dose for 7 days (reference value: 27.73 +/- 0.94 g); assay type: organism-based; conditions: in vivo, 168 h
[18] = system: Mus musculus; test: Acute toxicity in Swiss albino mouse assessed as serum SGOT level at 5 mg/kg, po qd administered as single dose for 7 days (reference value: 34.32 +/- 3.78 U/L); assay type: organism-based; conditions: in vivo, 168 h
[19] = system: Mus musculus; test: Acute toxicity in Swiss albino mouse assessed as serum albumin level at 300 mg/kg, po qd administered as single dose for 7 days (reference value: 2.49 +/- 0.17 g/dl); assay type: organism-based; conditions: in vivo, 168 h
[20] = system: Mus musculus; test: Acute toxicity in Swiss albino mouse assessed as effect on lymphocyte count up to 1000 mg/kg, po qd administered as single dose for 7 days; assay type: organism-based; conditions: in vivo, 168 h
[21] = system: Mus musculus; test: Acute toxicity in Swiss albino mouse assessed as body weight at 5 mg/kg, po qd administered as single dose for 7 days (reference value: 27.73 +/- 0.94 g); assay type: organism-based; conditions: in vivo, 168 h
[22] = system: Mus musculus; test: Acute toxicity in Swiss albino mouse assessed as changes in absolute weight of spleen up to 1000 mg/kg, po qd administered as single dose for 7 days; assay type: organism-based; conditions: in vivo, 168 h
[23] = system: Mus musculus; test: Acute toxicity in Swiss albino mouse assessed as serum cholesterol level at 5 mg/kg, po qd administered as single dose for 7 days (reference value: 68.37 +/- 4.42 mg/dl); assay type: organism-based; conditions: in vivo, 168 h
[24] = system: Mus musculus; test: Acute toxicity in Swiss albino mouse assessed as changes in posture up to 1000 mg/kg, po qd administered as single dose for 7 days; assay type: organism-based; conditions: in vivo, 168 h
[25] = system: Mus musculus; test: Acute toxicity in Swiss albino mouse assessed as serum creatinine level at 5 mg/kg, po qd administered as single dose for 7 days (reference value: 0.09 +/- 0.01 mg/dl); assay type: organism-based; conditions: in vivo, 168 h
[26] = system: Mus musculus; test: Acute toxicity in Swiss albino mouse assessed as changes in absolute weight of brain up to 1000 mg/kg, po qd administered as single dose for 7 days; assay type: organism-based; conditions: in vivo, 168 h
[27] = system: Mus musculus; test: Acute toxicity in Swiss albino mouse assessed as serum ALP level at 1000 mg/kg, po qd administered as single dose for 7 days (reference value: 292.13 +/- 40.29 U/L); assay type: organism-based; conditions: in vivo, 168 h
[28] = system: Mus musculus; test: Acute toxicity in Swiss albino mouse assessed as changes in relative weight of kidney up to 1000 mg/kg, po qd administered as single dose for 7 days; assay type: organism-based; conditions: in vivo, 168 h
[29] = system: Mus musculus; test: Acute toxicity in Swiss albino mouse assessed as changes in relative weight of brain up to 1000 mg/kg, po qd administered as single dose for 7 days; assay type: organism-based; conditions: in vivo, 168 h
[30] = system: Mus musculus; test: Acute toxicity in Swiss albino mouse assessed as serum SGOT level at 1000 mg/kg, po qd administered as single dose for 7 days (reference value: 34.32 +/- 3.78 U/L); assay type: organism-based; conditions: in vivo, 168 h
[31] = system: Mus musculus; test: Acute toxicity in Swiss albino mouse assessed as changes in response of mouse up to 1000 mg/kg, po qd administered as single dose for 7 days; assay type: organism-based; conditions: in vivo, 168 h
[32] = Antiproliferative activity against human FADU cells after 48 hrs by SRB assay; assay type: functional, cell-based
[33] = Antiproliferative activity against human MCF7 cells after 48 hrs by SRB assay; assay type: functional, cell-based; conditions: MCF7, 48 h
[34] = system: Mus musculus; test: Acute toxicity in Swiss albino mouse assessed as serum SGPT level at 5 mg/kg, po qd administered as single dose for 7 days (reference value: 23.06 +/- 1.92 U/L); assay type: organism-based; conditions: in vivo, 168 h
[35] = system: Mus musculus; test: Acute toxicity in Swiss albino mouse assessed as serum SGOT level at 300 mg/kg, po qd administered as single dose for 7 days (reference value: 34.32 +/- 3.78 U/L); assay type: organism-based; conditions: in vivo, 168 h
[36] = Antiproliferative activity against human DU145 cells after 48 hrs by SRB assay; assay type: functional, cell-based; conditions: DU-145, 48 h
[37] = system: Mus musculus; test: Acute toxicity in Swiss albino mouse assessed as serum SGPT level at 1000 mg/kg, po qd administered as single dose for 7 days (reference value: 23.06 +/- 1.92 U/L); assay type: organism-based; conditions: in vivo, 168 h

Question: For `O=C1C=C(OCc2ccccc2)C(=O)c2ccccc21`, which Activity [1] is on record?
Answer: 8.66 ×10³ /mm3

Question: What about the Activity [2] of the same compound?
Answer: 127.4 mg/dL

Question: What about the Activity [3] of the same compound?
Answer: 112.9 mg/dL

Question: And the Activity [4]?
Answer: Non-Toxic

Question: And the Activity [5]?
Answer: Active

Question: And the Activity [6]?
Answer: Active

Question: And the Activity [7]?
Answer: 18.02 U/L

Question: And the Activity [8]?
Answer: Non-Toxic

Question: And the Activity [9]?
Answer: 2.92 mg/mL

Question: What about the Activity [10] of the same compound?
Answer: 26.48 g

Question: What about the IC50 [11] of the same compound?
Answer: 6.83 µM

Question: And the Activity [12]?
Answer: 12.65 g/dL

Question: And the Activity [13]?
Answer: Non-Toxic

Question: And the Activity [14]?
Answer: Non-Toxic

Question: What about the Activity [15] of the same compound?
Answer: 2.95 mg/mL

Question: And the Activity [16]?
Answer: Non-Toxic

Question: And the Activity [17]?
Answer: 27.09 g

Question: And the Activity [18]?
Answer: 38.3 U/L

Question: What about the Activity [19] of the same compound?
Answer: 2.92 g/dL

Question: And the Activity [20]?
Answer: Non-Toxic

Question: What about the Activity [21] of the same compound?
Answer: 26.34 g

Question: And the Activity [22]?
Answer: Non-Toxic

Question: And the Activity [23]?
Answer: 65.28 mg/dL

Question: What about the Activity [24] of the same compound?
Answer: Non-Toxic

Question: And the Activity [25]?
Answer: 0.14 mg/dL

Question: What about the Activity [26] of the same compound?
Answer: Non-Toxic

Question: And the Activity [27]?
Answer: 385.91 U/L

Question: And the Activity [28]?
Answer: Non-Toxic

Question: What about the Activity [29] of the same compound?
Answer: Non-Toxic

Question: And the Activity [30]?
Answer: 31.68 U/L

Question: What about the Activity [31] of the same compound?
Answer: Non-Toxic

Question: What about the IC50 [32] of the same compound?
Answer: 5.27 µM

Question: What about the IC50 [33] of the same compound?
Answer: 13.9 µM

Question: And the Activity [34]?
Answer: 19.16 U/L

Question: And the Activity [35]?
Answer: 33.87 U/L

Question: What about the IC50 [36] of the same compound?
Answer: 10.6 µM

Question: And the Activity [37]?
Answer: 25 U/L
